Experimental data from BindingDB's records for doi:10.1016/0960-894X(95)00377-6 (1995).

Tests used:
[1] = target: alpha-L-fucosidase (Bos taurus); assay: Compound was tested for inhibitory activity (competitive) against alpha-L-fucosidase from bovine kidney
[2] = target: alpha-L-fucosidase (Bos taurus); assay: Compound was tested for inhibitory activity against alpha-L-fucosidase from bovine epididymis
[3] = target: alpha-L-fucosidase (Bos taurus); assay: Compound was tested for inhibitory activity (mixed) against alpha-L-fucosidase from bovine kidney

Row | Ki [1] [µM] | Ki [2] [µM] | Ki [3] [mM] | Structure (SMILES)
1 | 42 | 84 | – | C[C@@H]1O[C@@H](O)[C@@H](O)[C@H](O)[C@@H]1S [(2R,3S,4S,5S,6S)-5-Mercapto-6-methyl-tetrahydro-pyran-2,3,4-triol]
2 | – | – | 4 | CC1OC(SC2CC(O)C(O)OC2CO)C(O)C(O)C1O [(2S,4S,5S)-2-((3S,5S)-5,6-Dihydroxy-2-hydroxymethyl-tetrahydro-pyran-3-ylsulfanyl)-6-methyl-tetrahydro-pyran-3,4,5-triol]
3 | 7 | 11 | – | NCC(O)C(=O)C(=O)C(N)CO (stereo unspecified) [2,6-Diimino-hexane-1,3,4,5-tetraol]
4 | – | – | 2.4 | CC(=O)NC1CC(SC2OC(C)C(O)C(O)C2O)C(CO)OC1O [N-[(3S,5S)-2-Hydroxy-6-hydroxymethyl-5-((2S,4S,5S)-3,4,5-trihydroxy-6-methyl-tetrahydro-pyran-2-ylsulfanyl)-tetrahydro-pyran-3-yl]-acetamide]
